The numbers were not newly measured in US20240398972A1, “METHODS FOR PRODUCING ANTIBODY-LINKER CONJUGATES” (ARARIS BIOTECH AG, priority 2021, published 2024), which cites them from elsewhere.

One series concerns various tumor cell lines. Particulars: cytostatic effects.
For series [1], the target named is DNA-dependent RNA polymerase II (Homo sapiens, UniProt P24928). The settings on record: complex amanitin / RNA-polymerase II, not covalently bound.

Turning to `CC[C@H](C)[C@H](NC(=O)[C@H]1CCCCN1C)C(=O)N(COC(=O)CC(C)C)[C@H](C[C@@H](OC(C)=O)c1nc(C(=O)N[C@@H](Cc2ccc(O)cc2)C[C@H](C)C(=O)O)cs1)C(C)C` [Tubulysin A], in the series on various tumor cell lines, the IC50 result is “picomolar range”.

As a reminder, the Kd is the concentration at which binding is half-saturated. Turning to amanitin, in series [1], the Kd was 3 nM.
